Measurements reported in PubChem BioAssay AID1845195 (Molecular Pharmacology Branch, DTP, NCI, 2023).
“And” between values parts separate entries of the source, which are not always exact repeats. Equal values may be shown once.

System: 156681-154-R-J1 tumor spheroid viability
Experiment: Anticancer human tumor 156681-154-R-J1 patient-derived melanoma cell line growth inhibition
Details: spheroids with HUVEC and MSC; for viability, T/C: stronger effect = lower value
Summary of the method: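 Single agents and combinations were tested on spheroids built from tumor cells plus HUVEC and hMSC, at half-log dilutions starting at or near clinical Cmax, else 10 microM; final DMSO 0.25% (v/v).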

[1] = curve of first compound, second compound 30 pM
[2] = curve of first compound, second compound 94.9 pM
[3] = curve of first compound, second compound 0.0003 µM
[4] = curve of first compound, second compound 0.000949 µM
[5] = curve of first compound, second compound 0.003 µM
[6] = second compound 30 pM, first compound 0.0949 µM
[7] = second compound 30 pM, first compound 0.3 µM
[8] = second compound 30 pM, first compound 0.949 µM
[9] = second compound 30 pM, first compound 3 µM
[10] = second compound 94.9 pM, first compound 0.0949 µM
[11] = second compound 94.9 pM, first compound 0.3 µM
[12] = second compound 94.9 pM, first compound 0.949 µM
[13] = second compound 94.9 pM, first compound 3 µM
[14] = second compound 0.0003 µM, first compound 0.0949 µM
[15] = second compound 0.0003 µM, first compound 0.3 µM
[16] = second compound 0.0003 µM, first compound 0.949 µM
[17] = second compound 0.0003 µM, first compound 3 µM
[18] = second compound 0.000949 µM, first compound 0.0949 µM
[19] = second compound 0.000949 µM, first compound 0.3 µM
[20] = second compound 0.000949 µM, first compound 0.949 µM
[21] = second compound 0.000949 µM, first compound 3 µM
[22] = second compound 0.003 µM, first compound 0.0949 µM
[23] = second compound 0.003 µM, first compound 0.3 µM
[24] = second compound 0.003 µM, first compound 0.949 µM
[25] = second compound 0.003 µM, first compound 3 µM
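Note: spheroids exposed to compounds for 7 days before readout.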
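Throughout, for viability, T/C: percent of vehicle control viability where 100% = DMSO-treated spheroids.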

In the case of `Cc1cc(C)c(CNC(=O)c2cc(-c3ccc(CN4CCOCC4)cc3)cc3c2cnn3C2CCCC2)c(=O)[nH]1`, the viability, T/C (compound 0.0316 µM) is reported as 80.8% and 92.1% and 108%, the viability, T/C (compound 0.1 µM) is reported as 101% and 82.4% and 85.2% and the viability, T/C (compound 0.316 µM) is reported as 85.4% and 99.5% and 97.3%. For the same compound, the viability, T/C (compound 1 µM) was 97.1% and 73% and 93.2%, the viability, T/C (compound 3.16 µM) was 90.4% and 89.8% and 92.5% and the viability, T/C (compound 10 µM) was 90% and 87.1% and 91.1%. It also gave an IC50 (curve of compound) of over 10000 nM.
For `CC(C)n1c(=O)n(C)c2cnc3cc(F)c(-c4ccc(OCCCN5CCCCC5)nc4)cc3c21`, the viability, T/C (compound 0.0316 µM) was 106% and 92.3% and 88.9%, the viability, T/C (compound 0.1 µM) was 101% (2×) and 102% and the viability, T/C (compound 0.316 µM) was 97.7% and 98.2% and 112%. The viability, T/C (compound 1 µM) was 100% and 106% and 96.7%, the viability, T/C (compound 3.16 µM) was 98.3% and 109% (2×) and the viability, T/C (compound 10 µM) was 78.9% and 100% and 96.5%. For the same compound, the IC50 (curve of compound) was over 10000 nM.
Compound `Cc1sc2c(c1C)C(c1ccc(Cl)cc1)=NC(CC(=O)Nc1ccc(O)cc1)c1nnc(C)n1-2` (centres undefined) + COc1cc2c(cc1O)CCNC21CSC2c3c(OC(C)=O)c(C)c4c(c3C(COC1=O)N1C(O)C3Cc5cc(C)c(OC)c(O)c5C(C21)N3C)OCO4 has an IC50 [1] of over 3000 nM, an IC50 [2] of 2030 nM and an IC50 [3] of 197 nM. The IC50 [4] was under 9.49 nM, the IC50 [5] was under 9.49 nM and the viability, T/C (second compound 30 pM, first compound 0.00949 µM) was 104%. The viability, T/C (second compound 30 pM, first compound 0.03 µM) was 92.1%, the viability, T/C [6] was 103% and the viability, T/C [7] was 109%. It also gave a viability, T/C [8] of 68.3%, a viability, T/C [9] of 61.8% and a viability, T/C (second compound 94.9 pM, first compound 0.00949 µM) of 108%. For the same compound, the viability, T/C (second compound 94.9 pM, first compound 0.03 µM) was 97.1%, the viability, T/C [10] was 95.8% and the viability, T/C [11] was 85.5%. For the same compound, the viability, T/C [12] was 82.5%, the viability, T/C [13] was 34.7% and the viability, T/C (second compound 0.0003 µM, first compound 0.00949 µM) was 90.7%. It also gave a viability, T/C (second compound 0.0003 µM, first compound 0.03 µM) of 76.7%, a viability, T/C [14] of 64.9% and a viability, T/C [15] of 45.2%. It also gave a viability, T/C [16] of 15.7%, a viability, T/C [17] of 9.14% and a viability, T/C (second compound 0.000949 µM, first compound 0.00949 µM) of 1.73%. For the same compound, the viability, T/C (second compound 0.000949 µM, first compound 0.03 µM) was 3.32%, the viability, T/C [18] was 2.97% and the viability, T/C [19] was 1.78%. The viability, T/C [20] was 0.17%, the viability, T/C [21] was 0.15% and the viability, T/C (second compound 0.003 µM, first compound 0.00949 µM) was 0.14%. It also gave a viability, T/C (second compound 0.003 µM, first compound 0.03 µM) of 0.17%, a viability, T/C [22] of 0.12% and a viability, T/C [23] of 0.12%. It also gave a viability, T/C [24] of 0.12% and a viability, T/C [25] of 0.21%.
`O=C(c1cc(Cc2n[nH]c(=O)c3ccccc23)ccc1F)N1CCN(C(=O)C2CC2)CC1` + COc1cc2c(cc1O)CCNC21CSC2c3c(OC(C)=O)c(C)c4c(c3C(COC1=O)N1C(O)C3Cc5cc(C)c(OC)c(O)c5C(C21)N3C)OCO4 showed an IC50 [1] of over 30000 nM, an IC50 [2] of over 30000 nM and an IC50 [3] of 5840 nM. The IC50 [4] was under 94.9 nM, the IC50 [5] was under 94.9 nM and the viability, T/C [6] was 83.5%. It also gave a viability, T/C [7] of 77%, a viability, T/C [8] of 73.4% and a viability, T/C [9] of 72.2%. For the same compound, the viability, T/C (second compound 30 pM, first compound 9.49 µM) was 65.3%, the viability, T/C (second compound 30 pM, first compound 30 µM) was 60.1% and the viability, T/C [10] was 82.1%. The viability, T/C [11] was 85.9%, the viability, T/C [12] was 82.7% and the viability, T/C [13] was 66.3%. It also gave a viability, T/C (second compound 94.9 pM, first compound 9.49 µM) of 69%, a viability, T/C (second compound 94.9 pM, first compound 30 µM) of 53.5% and a viability, T/C [14] of 69.8%. It also gave a viability, T/C [15] of 68.6%, a viability, T/C [16] of 64.1% and a viability, T/C [17] of 66.8%. The viability, T/C (second compound 0.0003 µM, first compound 9.49 µM) was 37.8%, the viability, T/C (second compound 0.0003 µM, first compound 30 µM) was 21.2% and the viability, T/C [18] was 4.61%. For the same compound, the viability, T/C [19] was 4.05%, the viability, T/C [20] was 3.32% and the viability, T/C [21] was 4.15%. It also gave a viability, T/C (second compound 0.000949 µM, first compound 9.49 µM) of 0.45%, a viability, T/C (second compound 0.000949 µM, first compound 30 µM) of 0.13% and a viability, T/C [22] of 0.12%. The viability, T/C [23] was 0.12%, the viability, T/C [24] was 0.1% and the viability, T/C [25] was 0.11%. For the same compound, the viability, T/C (second compound 0.003 µM, first compound 9.49 µM) was 0.11% and the viability, T/C (second compound 0.003 µM, first compound 30 µM) was 0.17%.
`CC1COCCN1c1cc(-c2ccnn2C)c2ccnc(-c3ccn[nH]3)c2n1` (centres undefined) + COc1cc2c(cc1O)CCNC21CSC2c3c(OC(C)=O)c(C)c4c(c3C(COC1=O)N1C(O)C3Cc5cc(C)c(OC)c(O)c5C(C21)N3C)OCO4 showed an IC50 [1] of 190 nM, an IC50 [2] of 104 nM and an IC50 [3] of under 31.6 nM. The IC50 [4] was under 31.6 nM, the IC50 [5] was under 31.6 nM and the viability, T/C (second compound 30 pM, first compound 0.0316 µM) was 96.4%. The viability, T/C (second compound 30 pM, first compound 0.1 µM) was 62.2%, the viability, T/C (second compound 30 pM, first compound 0.316 µM) was 39.9% and the viability, T/C (second compound 30 pM, first compound 1 µM) was 29.9%. It also gave a viability, T/C (second compound 30 pM, first compound 3.16 µM) of 27.3%, a viability, T/C (second compound 30 pM, first compound 10 µM) of 22.6% and a viability, T/C (second compound 94.9 pM, first compound 0.0316 µM) of 78.7%. For the same compound, the viability, T/C (second compound 94.9 pM, first compound 0.1 µM) was 50.7%, the viability, T/C (second compound 94.9 pM, first compound 0.316 µM) was 33.6% and the viability, T/C (second compound 94.9 pM, first compound 1 µM) was 30%. For the same compound, the viability, T/C (second compound 94.9 pM, first compound 3.16 µM) was 22.1%, the viability, T/C (second compound 94.9 pM, first compound 10 µM) was 21.9% and the viability, T/C (second compound 0.0003 µM, first compound 0.0316 µM) was 49.5%. The viability, T/C (second compound 0.0003 µM, first compound 0.1 µM) was 41.1%, the viability, T/C (second compound 0.0003 µM, first compound 0.316 µM) was 23.9% and the viability, T/C (second compound 0.0003 µM, first compound 1 µM) was 20.6%. For the same compound, the viability, T/C (second compound 0.0003 µM, first compound 3.16 µM) was 21.3%, the viability, T/C (second compound 0.0003 µM, first compound 10 µM) was 20.1% and the viability, T/C (second compound 0.000949 µM, first compound 0.0316 µM) was 6.51%. For the same compound, the viability, T/C (second compound 0.000949 µM, first compound 0.1 µM) was 2.7%, the viability, T/C (second compound 0.000949 µM, first compound 0.316 µM) was 4.04% and the viability, T/C (second compound 0.000949 µM, first compound 1 µM) was 3.29%. The viability, T/C (second compound 0.000949 µM, first compound 3.16 µM) was 0.29%, the viability, T/C (second compound 0.000949 µM, first compound 10 µM) was 0.17% and the viability, T/C (second compound 0.003 µM, first compound 0.0316 µM) was 0.23%. It also gave a viability, T/C (second compound 0.003 µM, first compound 0.1 µM) of 0.22%, a viability, T/C (second compound 0.003 µM, first compound 0.316 µM) of 0.16% and a viability, T/C (second compound 0.003 µM, first compound 1 µM) of 0.13%. For the same compound, the viability, T/C (second compound 0.003 µM, first compound 3.16 µM) was 0.14% and the viability, T/C (second compound 0.003 µM, first compound 10 µM) was 0.25%.
